Measurements: ChEMBL document CHEMBL2417447, “Synthesis and binary QSAR study of antitubercular quinolylhydrazides” (2013)
Values after ≈ are worked out from the molar mass of the structure shown.

How the values were obtained:
[1] = tested on: Mycobacterium tuberculosis; assay: Antimycobacterial activity against Mycobacterium tuberculosis H37Rv ATCC 27294 assessed as growth inhibition at 6.25 ug/ml after 5 to 8 days by microplate alamar blue assay relative to control; format: functional; conditions: read-out: GI
[2] = tested on: Mycobacterium tuberculosis; assay: Antitubercular activity against Mycobacterium tuberculosis H37Rv ATCC 27294 after 5 to 8 days by microplate alamar blue assay; format: functional

Row | Compound | inhibition of growth at 6.25 µg/mL [1] | MIC [2]
1 | O=C1Nc2c(cccc2[N+](=O)[O-])C(=O)/C1=N/Nc1ccccc1-c1ccccc1 | 35% | > 6.25 µg/mL
2 | COc1ccc(N/N=C2\C(=O)Nc3c(Cl)ccc(Cl)c3C2=O)cc1 | 36% | > 6.25 µg/mL
3 | COc1ccc2c(c1)C(=O)/C(=N/Nc1ccccc1)C(=O)N2 | 0% | > 6.25 µg/mL
4 | O=C1Nc2c(cccc2[N+](=O)[O-])C(=O)/C1=N/Nc1ccc(Cl)c(Cl)c1 | 79% | < 6.25 µg/mL
5 | O=C1Nc2cc(Cl)ccc2C(=O)/C1=N/Nc1ccccc1 | 76% | < 6.25 µg/mL
6 | O=C1Nc2c(cccc2[N+](=O)[O-])C(=O)/C1=N/Nc1ccccc1 | 99% | < 6.25 µg/mL
7 | O=C1Nc2c(cccc2[N+](=O)[O-])C(=O)/C1=N/Nc1ccc(F)c(Cl)c1 | 85% | < 6.25 µg/mL
8 | O=C1Nc2c(Cl)cccc2C(=O)/C1=N/Nc1cccc([N+](=O)[O-])c1 | 24% | > 6.25 µg/mL
9 | CC(=O)c1ccc(N/N=C2\C(=O)Nc3cc(Cl)ccc3C2=O)cc1 | 6% | > 6.25 µg/mL
10 | COc1ccc(N/N=C2\C(=O)Nc3ccc(Cl)cc3C2=O)cc1 | 55% | < 6.25 µg/mL
11 | Cc1cccc(N/N=C2\C(=O)Nc3cc(C)ccc3C2=O)c1 | 76% | < 6.25 µg/mL
12 | O=C1Nc2c(cccc2[N+](=O)[O-])C(=O)/C1=N/Nc1ccc([N+](=O)[O-])cc1 | 65% | < 6.25 µg/mL
13 | O=C1Nc2ccc(Cl)cc2C(=O)/C1=N/Nc1ccc([N+](=O)[O-])cc1 | 91% | < 6.25 µg/mL
14 | Cc1cccc(N/N=C2\C(=O)Nc3c(ccc(Cl)c3Cl)C2=O)c1 | 62% | < 6.25 µg/mL
15 | COc1ccccc1N/N=C1\C(=O)Nc2cc([N+](=O)[O-])ccc2C1=O | 96% | < 6.25 µg/mL
16 | Cc1ccc(N/N=C2\C(=O)Nc3c(Cl)ccc(Cl)c3C2=O)cc1 | 11% | > 6.25 µg/mL
17 | Cc1c(Cl)cccc1N/N=C1\C(=O)Nc2c(cccc2[N+](=O)[O-])C1=O | 56% | < 6.25 µg/mL
18 | COc1ccc(N/N=C2\C(=O)Nc3c(cccc3[N+](=O)[O-])C2=O)c(C)c1 | 45% | > 6.25 µg/mL
19 | Cc1cccc(N/N=C2\C(=O)Nc3cc([N+](=O)[O-])ccc3C2=O)c1 | 19% | > 6.25 µg/mL
20 | O=C1Nc2cc([N+](=O)[O-])ccc2C(=O)/C1=N/Nc1cccc(Cl)c1Cl | 21% | > 6.25 µg/mL
21 | CC(=O)c1ccc(N/N=C2\C(=O)Nc3c(ccc(Cl)c3Cl)C2=O)cc1 | 98% | < 6.25 µg/mL
22 | O=C1Nc2c(Cl)ccc(Cl)c2C(=O)/C1=N/Nc1cccc(Cl)c1 | 32% | > 6.25 µg/mL
23 | O=C1Nc2cc(Cl)ccc2C(=O)/C1=N/Nc1cccc(Cl)c1 | 47% | > 6.25 µg/mL
24 | CN1C(=O)/C(=N\Nc2ccc(Cl)cc2)C(=O)c2ccccc21 | 38% | > 6.25 µg/mL
25 | Cc1ccc(N/N=C2\C(=O)Nc3c(Cl)cccc3C2=O)cc1 | 34% | > 6.25 µg/mL

Row | Compound | inhibition of growth at 6.25 µg/mL [1] | MIC [2]
26 | O=C1Nc2ccc(Cl)cc2C(=O)/C1=N/Nc1ccccc1[N+](=O)[O-] | 64% | < 6.25 µg/mL
27 | COc1ccc(N/N=C2\C(=O)Nc3c(ccc(Cl)c3Cl)C2=O)cc1 | 14% | > 6.25 µg/mL
28 | O=C1Nc2c(ccc(Cl)c2Cl)C(=O)/C1=N/Nc1cccc([N+](=O)[O-])c1 | 27% | > 6.25 µg/mL
29 | CN1C(=O)/C(=N\Nc2ccccc2[N+](=O)[O-])C(=O)c2ccccc21 | 94% | < 6.25 µg/mL
30 | O=C1Nc2c(Cl)cccc2C(=O)/C1=N/Nc1ccccc1 | 100% | < 6.25 µg/mL
31 | CC(=O)c1ccc(N/N=C2\C(=O)Nc3c(Cl)cccc3C2=O)cc1 | 24% | > 6.25 µg/mL
32 | CN1C(=O)/C(=N\Nc2ccc(Cl)c(Cl)c2)C(=O)c2ccccc21 | 10% | > 6.25 µg/mL
33 | O=C1Nc2cc([N+](=O)[O-])ccc2C(=O)/C1=N/Nc1ccc(Cl)c(F)c1 | 70% | < 6.25 µg/mL
34 | O=C1Nc2ccc(Cl)cc2C(=O)/C1=N/Nc1ccc(Cl)c(Cl)c1 | 95% | < 6.25 µg/mL
35 | CC(=O)c1ccc(N/N=C2\C(=O)Nc3c(cccc3[N+](=O)[O-])C2=O)cc1 | 89% | < 6.25 µg/mL
36 | O=C1Nc2c(ccc(Cl)c2Cl)C(=O)/C1=N/Nc1cccc(F)c1 | 80% | < 6.25 µg/mL
37 | O=C1Nc2c(cccc2[N+](=O)[O-])C(=O)/C1=N/Nc1ccc(Cl)cc1 | 61% | < 6.25 µg/mL
38 | Cc1cccc(N/N=C2\C(=O)Nc3c(cccc3[N+](=O)[O-])C2=O)c1C | 48% | > 6.25 µg/mL
39 | O=C1Nc2cc([N+](=O)[O-])ccc2C(=O)/C1=N/Nc1ccc(F)cc1 | 100% | < 6.25 µg/mL
40 | CC(=O)c1ccc(N/N=C2\C(=O)Nc3ccc(Cl)cc3C2=O)cc1 | 29% | > 6.25 µg/mL
41 | Cc1c(Cl)cccc1N/N=C1\C(=O)Nc2cc([N+](=O)[O-])ccc2C1=O | 98% | < 6.25 µg/mL
42 | Cc1cccc(N/N=C2\C(=O)Nc3c(cccc3[N+](=O)[O-])C2=O)c1 | 95% | < 6.25 µg/mL
43 | COc1ccc(N/N=C2\C(=O)Nc3c(Cl)ccc(Cl)c3C2=O)c(C)c1 | 40% | > 6.25 µg/mL
44 | COc1ccc(N/N=C2\C(=O)Nc3ccc(Cl)cc3C2=O)c(C)c1 | 12% | > 6.25 µg/mL
45 | Cc1ccc(N/N=C2\C(=O)Nc3c(ccc(Cl)c3Cl)C2=O)cc1 | 54% | < 6.25 µg/mL
46 | Cc1cccc(N/N=C2\C(=O)Nc3ccccc3C2=O)c1 | 42% | > 6.25 µg/mL
47 | COc1ccccc1N/N=C1\C(=O)Nc2c(cccc2[N+](=O)[O-])C1=O | 32% | > 6.25 µg/mL
48 | O=C1Nc2c(Cl)ccc(Cl)c2C(=O)/C1=N/Nc1ccc(F)cc1 | 80% | < 6.25 µg/mL
49 | Cc1ccc(N/N=C2\C(=O)Nc3cc([N+](=O)[O-])ccc3C2=O)cc1 | 92% | < 6.25 µg/mL
50 | Cc1ccccc1N/N=C1/C(=O)c2ccccc2N(C)C1=O | 97% | < 6.25 µg/mL

Row | Compound | inhibition of growth at 6.25 µg/mL [1] | MIC [2]
51 | O=C1Nc2c(ccc(Cl)c2Cl)C(=O)/C1=N/Nc1cccc(Cl)c1 | 82% | < 6.25 µg/mL
52 | O=C1Nc2cc([N+](=O)[O-])ccc2C(=O)/C1=N/Nc1ccccc1-c1ccccc1 | 100% | < 6.25 µg/mL
53 | COc1ccc(N/N=C2\C(=O)Nc3c(cccc3[N+](=O)[O-])C2=O)cc1 | 37% | > 6.25 µg/mL
54 | O=C1Nc2c(cccc2[N+](=O)[O-])C(=O)/C1=N/Nc1ccc(F)cc1 | 46% | > 6.25 µg/mL
55 | Cc1cccc(C)c1N/N=C1\C(=O)Nc2c(cccc2[N+](=O)[O-])C1=O | 22% | > 6.25 µg/mL
56 | O=C1Nc2cc(Cl)ccc2C(=O)/C1=N/Nc1ccc(F)cc1 | 50% | < 6.25 µg/mL
57 | O=C1Nc2c(cccc2[N+](=O)[O-])C(=O)/C1=N/Nc1cccc(Cl)c1 | 82% | < 6.25 µg/mL
58 | CO[C@H]1/C=C/O[C@@]2(C)Oc3c(C)c(O)c4c(O)c(c(/C=N/N5CCN(C)CC5)c(O)c4c3C2=O)NC(=O)/C(C)=C\C=C\[C@H](C)[C@H](O)[C@@H](C)[C@@H](O)[C@@H](C)[C@H](OC(C)=O)[C@@H]1C [RIFAMPIN] | 97% | 0.015 µg/mL (≈ 0.0182 µM)
59 | O=C1Nc2cc(Cl)ccc2C(=O)/C1=N/Nc1ccc([N+](=O)[O-])cc1 | 1% | > 6.25 µg/mL
60 | O=C1Nc2ccc(Cl)cc2C(=O)/C1=N/Nc1ccc(Cl)cc1 | 98% | < 6.25 µg/mL
61 | Cc1cccc(N/N=C2\C(=O)Nc3c(C)cccc3C2=O)c1 | 31% | > 6.25 µg/mL
62 | O=C1Nc2cc([N+](=O)[O-])ccc2C(=O)/C1=N/Nc1ccc(Br)cc1 | 100% | < 6.25 µg/mL
63 | O=C1Nc2ccc(Cl)cc2C(=O)/C1=N/Nc1ccc(F)cc1 | 71% | < 6.25 µg/mL
64 | O=C1Nc2c(Cl)cccc2C(=O)/C1=N/Nc1ccccc1Cl | 7% | > 6.25 µg/mL
65 | Cc1cccc2c1NC(=O)/C(=N\Nc1cccc(Cl)c1)C2=O | 39% | > 6.25 µg/mL
66 | O=C1Nc2c(ccc(Cl)c2Cl)C(=O)/C1=N/Nc1ccccc1 | 85% | < 6.25 µg/mL
67 | CN1C(=O)/C(=N\Nc2ccc([N+](=O)[O-])cc2)C(=O)c2ccccc21 | 20% | > 6.25 µg/mL
68 | Cc1cccc(C)c1N/N=C1\C(=O)Nc2ccc(Cl)cc2C1=O | 13% | > 6.25 µg/mL
69 | COc1ccc(N/N=C2\C(=O)c3cccc([N+](=O)[O-])c3N(C)C2=O)c(C)c1 | 40% | > 6.25 µg/mL
70 | Cc1ccc2c(c1)NC(=O)/C(=N\Nc1ccccc1Cl)C2=O | 31% | > 6.25 µg/mL
71 | O=C1Nc2ccccc2C(=O)/C1=N/Nc1ccccc1 | 97% | < 6.25 µg/mL
72 | O=C1Nc2ccc(Cl)cc2C(=O)/C1=N/Nc1cccc([N+](=O)[O-])c1 | 96% | < 6.25 µg/mL
73 | CC(=O)c1ccc(N/N=C2/C(=O)c3ccccc3N(C)C2=O)cc1 | 20% | > 6.25 µg/mL
74 | O=C1Nc2c(cccc2[N+](=O)[O-])C(=O)/C1=N/Nc1cccc([N+](=O)[O-])c1 | 60% | < 6.25 µg/mL
75 | O=C1Nc2c(Cl)cccc2C(=O)/C1=N/Nc1ccc(Cl)c(Cl)c1 | 21% | > 6.25 µg/mL
